Reference: the NIST ThermoML archive (doi:10.1021/je900212d)
Numbers after ± are expanded uncertainties.

Experiments:
[1] = 101.33 kPa, Liquid
[2] = xn = mol fraction of the nth substance listed; conditions: 101 kPa, Liquid

ClCCCl [1,2-dichloroethane]
[1]
Conditions	mass density [kg/m3]	viscosity [mPa·s]
288.15 K	1259 ± 8.9	0.87 ± 0.012
293.15 K	1251.9 ± 8.7	0.8112 ± 0.012
298.15 K	1247.4 ± 8.6	0.7597 ± 0.011
303.15 K	1239 ± 8.4	0.7112 ± 0.011
308.15 K	1231.2 ± 8.2	0.6747 ± 0.011
313.15 K	1222 ± 8	0.6269 ± 0.01

ClCCCl [1,2-dichloroethane] + CCCO
[2]
Conditions	mass density [kg/m3]	viscosity [mPa·s]
288.15 K, x2 = 0.1054	1211 ± 15	0.8441 ± 0.012
288.15 K, x2 = 0.2095	1166.4 ± 13	0.8809 ± 0.013
288.15 K, x2 = 0.3124	1121.8 ± 10	0.9238 ± 0.013
288.15 K, x2 = 0.4141	1078.4 ± 8.1	0.998 ± 0.014
288.15 K, x2 = 0.5146	1032.4 ± 5.8	1.1 ± 0.015
288.15 K, x2 = 0.6139	986 ± 4.9	1.256 ± 0.016
288.15 K, x2 = 0.7121	942.8 ± 7	1.464 ± 0.019
288.15 K, x2 = 0.8092	895.4 ± 9.4	1.726 ± 0.022
288.15 K, x2 = 0.9051	843.5 ± 12	2.029 ± 0.025
293.15 K, x2 = 0.1054	1205 ± 14	0.785 ± 0.012
293.15 K, x2 = 0.2096	1159.7 ± 12	0.8086 ± 0.012
293.15 K, x2 = 0.3126	1116.2 ± 10	0.8504 ± 0.012
293.15 K, x2 = 0.4143	1072.1 ± 7.8	0.9115 ± 0.013
293.15 K, x2 = 0.5148	1026.6 ± 5.5	0.9988 ± 0.014
293.15 K, x2 = 0.6141	980.6 ± 5.1	1.139 ± 0.015
293.15 K, x2 = 0.7123	938.6 ± 7.2	1.31 ± 0.017
293.15 K, x2 = 0.8093	890.5 ± 9.6	1.534 ± 0.02
293.15 K, x2 = 0.9052	839.4 ± 12	1.795 ± 0.023
298.15 K, x2 = 0.1054	1199.2 ± 14	0.7324 ± 0.011
298.15 K, x2 = 0.2095	1154.4 ± 12	0.7472 ± 0.011
298.15 K, x2 = 0.3124	1109.3 ± 9.7	0.7831 ± 0.012
298.15 K, x2 = 0.4141	1067.1 ± 7.6	0.8368 ± 0.012
298.15 K, x2 = 0.5146	1021.3 ± 5.2	0.911 ± 0.013
298.15 K, x2 = 0.614	976.2 ± 5.3	1.035 ± 0.014
298.15 K, x2 = 0.7122	934 ± 7.4	1.176 ± 0.015
298.15 K, x2 = 0.8092	885.9 ± 9.8	1.37 ± 0.018
298.15 K, x2 = 0.9052	836.3 ± 12	1.603 ± 0.02
303.15 K, x2 = 0.1056	1192.6 ± 14	0.6845 ± 0.011
303.15 K, x2 = 0.2099	1147.7 ± 12	0.7003 ± 0.011
303.15 K, x2 = 0.3129	1104.2 ± 9.4	0.7255 ± 0.011
303.15 K, x2 = 0.4146	1061.1 ± 7.3	0.7704 ± 0.011
303.15 K, x2 = 0.5151	1016 ± 5	0.8342 ± 0.012
303.15 K, x2 = 0.6144	970.5 ± 5.6	0.9344 ± 0.013
303.15 K, x2 = 0.7125	929.7 ± 7.7	1.061 ± 0.014
303.15 K, x2 = 0.8095	882.6 ± 10	1.228 ± 0.016
303.15 K, x2 = 0.9053	832.8 ± 12	1.441 ± 0.018
308.15 K, x2 = 0.1057	1183.4 ± 13	0.64 ± 0.01
308.15 K, x2 = 0.21	1140.7 ± 11	0.6502 ± 0.01
308.15 K, x2 = 0.3131	1097.2 ± 9.1	0.6731 ± 0.011
308.15 K, x2 = 0.4149	1054.9 ± 6.9	0.7116 ± 0.011
308.15 K, x2 = 0.5154	1009.5 ± 4.6	0.7657 ± 0.011
308.15 K, x2 = 0.6147	964 ± 6	0.8541 ± 0.012
308.15 K, x2 = 0.7128	924.3 ± 7.9	0.9603 ± 0.013
308.15 K, x2 = 0.8097	877.3 ± 10	1.105 ± 0.015
308.15 K, x2 = 0.9054	827.5 ± 13	1.303 ± 0.017
313.15 K, x2 = 0.1058	1174.9 ± 13	0.6002 ± 0.0099
313.15 K, x2 = 0.2103	1133.5 ± 11	0.6056 ± 0.01
313.15 K, x2 = 0.3134	1089 ± 8.7	0.6256 ± 0.01
313.15 K, x2 = 0.4152	1047.4 ± 6.6	0.6588 ± 0.01
313.15 K, x2 = 0.5158	1004 ± 4.4	0.706 ± 0.011
313.15 K, x2 = 0.615	956.7 ± 6.3	0.7849 ± 0.012
313.15 K, x2 = 0.7131	918.9 ± 8.2	0.8728 ± 0.013
313.15 K, x2 = 0.8099	870.1 ± 11	0.9952 ± 0.014
313.15 K, x2 = 0.9055	821.5 ± 13	1.176 ± 0.015

O=Cc1ccccc1 [benzaldehyde]
[1]
Conditions	mass density [kg/m3]	viscosity [mPa·s]
288.15 K	1056 ± 7.7	1.704 ± 0.026
293.15 K	1052.8 ± 7.6	1.558 ± 0.024
298.15 K	1047 ± 7.2	1.427 ± 0.022
303.15 K	1043.2 ± 7.1	1.316 ± 0.021
308.15 K	1039 ± 6.8	1.223 ± 0.019
313.15 K	1034.4 ± 6.6	1.131 ± 0.018
